Results from patent US11109593B2, “Isoxazolin-5-one derivative and herbicide containing same as active ingredient” (HOKKO CHEMICAL INDUSTRY CO., LTD., priority 2017, dated 2021).

test system: Echinochloa crus-galli; assay: Test Example 1: herbicidal effect test by treatment of rice paddy soil (immediately after seeding); assay type: in vivo; conditions: 120 g/10a active ingredient, dry weight vs untreated area, 14 days after treatment
Method in brief: (§1)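 Flooded paddy pot test in a glass greenhouse: emulsion diluted in water, dropped at 120 g a.i. per 10 ares just after sowing, water depth kept about 3 cm. Dry-weight reduction relative to untreated plants is scored at 14 days.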

SMILES	Herbicidal rate (%) Echinochloa crus-galli [%]
Cc1c(Cc2ccccc2NS(=O)(=O)C(F)(F)F)c(=O)on1CCC(C)(C)C [Compound 1-116]	90
Cc1c(Cc2ccccc2N(S(=O)(=O)C(F)(F)F)S(=O)(=O)C(F)(F)F)c(=O)on1CC1(C)CC1 [Compound 1-993]	100
Cc1c(Cc2ccccc2N(S(C)(=O)=O)S(=O)(=O)C(F)(F)F)c(=O)on1C(C)(C)C [Compound 1-889]	90

test system: Scirpus juncoides; assay: as above; assay type: in vivo; conditions: 120 g/10a active ingredient, dry weight vs untreated area, 14 days after treatment
Method in brief: as §1

SMILES	Herbicidal rate (%) Scirpus juncoides [%]
Cc1c(Cc2ccccc2NS(=O)(=O)C(F)(F)F)c(=O)on1CCC(C)(C)C [Compound 1-116]	90
Cc1c(Cc2ccccc2N(S(=O)(=O)C(F)(F)F)S(=O)(=O)C(F)(F)F)c(=O)on1CC1(C)CC1 [Compound 1-993]	100
Cc1c(Cc2ccccc2N(S(C)(=O)=O)S(=O)(=O)C(F)(F)F)c(=O)on1C(C)(C)C [Compound 1-889]	90

test system: broad leaf weeds (Lindernia pyxidaria and Monochoria vaginalis); assay: as above; assay type: in vivo; conditions: Lindernia pyxidaria, 120 g/10a active ingredient, dry weight vs untreated area, 14 days after treatment
Method in brief: as §1

SMILES	Herbicidal rate (%) Lindernia pyxidaria [%]
Cc1c(Cc2ccccc2NS(=O)(=O)C(F)(F)F)c(=O)on1CCC(C)(C)C [Compound 1-116]	90
Cc1c(Cc2ccccc2N(S(=O)(=O)C(F)(F)F)S(=O)(=O)C(F)(F)F)c(=O)on1CC1(C)CC1 [Compound 1-993]	100
Cc1c(Cc2ccccc2N(S(C)(=O)=O)S(=O)(=O)C(F)(F)F)c(=O)on1C(C)(C)C [Compound 1-889]	90

same assay, conditions: Monochoria vaginalis, 120 g/10a active ingredient, dry weight vs untreated area, 14 days after treatment

SMILES	Herbicidal rate (%) Monochoria vaginalis [%]
Cc1c(Cc2ccccc2NS(=O)(=O)C(F)(F)F)c(=O)on1CCC(C)(C)C [Compound 1-116]	80
Cc1c(Cc2ccccc2N(S(=O)(=O)C(F)(F)F)S(=O)(=O)C(F)(F)F)c(=O)on1CC1(C)CC1 [Compound 1-993]	100
Cc1c(Cc2ccccc2N(S(C)(=O)=O)S(=O)(=O)C(F)(F)F)c(=O)on1C(C)(C)C [Compound 1-889]	90

test system: Echinochloa crus-galli; assay: Test Example 2: herbicidal effect test by treatment during growing period in paddy rice cultivation (seven days after seeding); assay type: in vivo; conditions: 120 g/10a active ingredient, assessed 14 days after treatment, dry weight vs untreated area
Method in brief: (§2)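 Greenhouse flooded-pot test, seeds sown in puddled paddy soil; emulsion applied into water 7 d after seeding, 120 g a.i./10 a. Dry-weight-based herbicidal rate at 14 d, n=2.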

SMILES	Herbicidal rate (%) Echinochloa crus-galli [%]
Cc1c(Cc2ccccc2NS(=O)(=O)C(F)(F)F)c(=O)on1CCC(C)(C)C [Compound 1-116]	90
Cc1c(Cc2ccccc2N(S(=O)(=O)C(F)(F)F)S(=O)(=O)C(F)(F)F)c(=O)on1CC1(C)CC1 [Compound 1-993]	90
Cc1c(Cc2ccccc2N(S(C)(=O)=O)S(=O)(=O)C(F)(F)F)c(=O)on1C(C)(C)C [Compound 1-889]	90

test system: Scirpus juncoides; assay: as above; assay type: in vivo; conditions: 120 g/10a active ingredient, assessed 14 days after treatment, dry weight vs untreated area
Method in brief: as §2

SMILES	Herbicidal rate (%) Scirpus juncoides [%]
Cc1c(Cc2ccccc2NS(=O)(=O)C(F)(F)F)c(=O)on1CCC(C)(C)C [Compound 1-116]	90
Cc1c(Cc2ccccc2N(S(=O)(=O)C(F)(F)F)S(=O)(=O)C(F)(F)F)c(=O)on1CC1(C)CC1 [Compound 1-993]	90
Cc1c(Cc2ccccc2N(S(C)(=O)=O)S(=O)(=O)C(F)(F)F)c(=O)on1C(C)(C)C [Compound 1-889]	90

test system: broad leaf weeds (Lindernia pyxidaria and Monochoria vaginalis); assay: as above; assay type: in vivo; conditions: Lindernia pyxidaria, 120 g/10a active ingredient, assessed 14 days after treatment, dry weight vs untreated area
Method in brief: as §2

SMILES	Herbicidal rate (%) Lindernia pyxidaria [%]
Cc1c(Cc2ccccc2NS(=O)(=O)C(F)(F)F)c(=O)on1CCC(C)(C)C [Compound 1-116]	60
Cc1c(Cc2ccccc2N(S(=O)(=O)C(F)(F)F)S(=O)(=O)C(F)(F)F)c(=O)on1CC1(C)CC1 [Compound 1-993]	50
Cc1c(Cc2ccccc2N(S(C)(=O)=O)S(=O)(=O)C(F)(F)F)c(=O)on1C(C)(C)C [Compound 1-889]	90

same assay, conditions: Monochoria vaginalis, 120 g/10a active ingredient, assessed 14 days after treatment, dry weight vs untreated area

SMILES	Herbicidal rate (%) Monochoria vaginalis [%]
Cc1c(Cc2ccccc2NS(=O)(=O)C(F)(F)F)c(=O)on1CCC(C)(C)C [Compound 1-116]	80
Cc1c(Cc2ccccc2N(S(=O)(=O)C(F)(F)F)S(=O)(=O)C(F)(F)F)c(=O)on1CC1(C)CC1 [Compound 1-993]	60
Cc1c(Cc2ccccc2N(S(C)(=O)=O)S(=O)(=O)C(F)(F)F)c(=O)on1C(C)(C)C [Compound 1-889]	90

test system: Amaranthus viridis; assay: Test Example 3: herbicidal effect test by treatment of dry field farming soil (one day after seeding); assay type: in vivo; conditions: 120 g/10a active ingredient, evaluated 14 days after treatment
Method in brief: (§3)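 Compound emulsions are sprayed on the soil surface one day after sowing (120 g a.i. per 10 ares) before weeds emerge. Effect is expressed as percent dry-weight reduction versus untreated controls 14 days post-treatment.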

SMILES	herbicidal rate, Amaranthus viridis [%]
Cc1c(Cc2ccccc2NS(=O)(=O)C(F)(F)F)c(=O)on1CCC(C)(C)C [Compound 1-116]	80
Cc1c(Cc2ccccc2N(S(=O)(=O)C(F)(F)F)S(=O)(=O)C(F)(F)F)c(=O)on1CC1(C)CC1 [Compound 1-993]	40
Cc1c(Cc2ccccc2N(S(C)(=O)=O)S(=O)(=O)C(F)(F)F)c(=O)on1C(C)(C)C [Compound 1-889]	90

test system: Chenopodium album; assay: as above; assay type: in vivo; conditions: 120 g/10a active ingredient, evaluated 14 days after treatment
Method in brief: as §3

SMILES	herbicidal rate, Chenopodium album [%]
Cc1c(Cc2ccccc2NS(=O)(=O)C(F)(F)F)c(=O)on1CCC(C)(C)C [Compound 1-116]	50
Cc1c(Cc2ccccc2N(S(=O)(=O)C(F)(F)F)S(=O)(=O)C(F)(F)F)c(=O)on1CC1(C)CC1 [Compound 1-993]	40
Cc1c(Cc2ccccc2N(S(C)(=O)=O)S(=O)(=O)C(F)(F)F)c(=O)on1C(C)(C)C [Compound 1-889]	90

test system: Echinochloa crus-galli; assay: as above; assay type: in vivo; conditions: 120 g/10a active ingredient, evaluated 14 days after treatment
Method in brief: as §3

SMILES	herbicidal rate, Echinochloa crus-galli [%]
Cc1c(Cc2ccccc2NS(=O)(=O)C(F)(F)F)c(=O)on1CCC(C)(C)C [Compound 1-116]	90
Cc1c(Cc2ccccc2N(S(=O)(=O)C(F)(F)F)S(=O)(=O)C(F)(F)F)c(=O)on1CC1(C)CC1 [Compound 1-993]	90
Cc1c(Cc2ccccc2N(S(C)(=O)=O)S(=O)(=O)C(F)(F)F)c(=O)on1C(C)(C)C [Compound 1-889]	90

test system: southern crabgrass; assay: as above; assay type: in vivo; conditions: 120 g/10a active ingredient, evaluated 14 days after treatment
Method in brief: as §3

SMILES	herbicidal rate, southern crabgrass [%]
Cc1c(Cc2ccccc2NS(=O)(=O)C(F)(F)F)c(=O)on1CCC(C)(C)C [Compound 1-116]	90
Cc1c(Cc2ccccc2N(S(=O)(=O)C(F)(F)F)S(=O)(=O)C(F)(F)F)c(=O)on1CC1(C)CC1 [Compound 1-993]	80
Cc1c(Cc2ccccc2N(S(C)(=O)=O)S(=O)(=O)C(F)(F)F)c(=O)on1C(C)(C)C [Compound 1-889]	90

test system: Amaranthus viridis; assay: Test Example 4: herbicidal effect test by treatment of leave and stem in dry field farming (seven days after seeding); assay type: in vivo; conditions: 120 g/10a active ingredient; emulsion sprayed seven days after seeding; evaluated 14 days after treatment
Method in brief: (§4)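 Twenty seeds per species were mixed into the top 1 cm of alluvial soil in 36 cm^2 pots; emulsions were sprayed seven days after seeding at 100 L per 10 ares (120 g active ingredient per 10 ares). Herbicidal rate (%) = {1 − treated/untreated mean dry weight} × 100, 14 days after treatment, duplicate.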

SMILES	herbicidal effect (herbicidal rate), Amaranthus viridis [%]
Cc1c(Cc2ccccc2NS(=O)(=O)C(F)(F)F)c(=O)on1CCC(C)(C)C [Compound 1-116]	60
Cc1c(Cc2ccccc2N(S(=O)(=O)C(F)(F)F)S(=O)(=O)C(F)(F)F)c(=O)on1CC1(C)CC1 [Compound 1-993]	40
Cc1c(Cc2ccccc2N(S(C)(=O)=O)S(=O)(=O)C(F)(F)F)c(=O)on1C(C)(C)C [Compound 1-889]	40

test system: Chenopodium album; assay: as above; assay type: in vivo; conditions: 120 g/10a active ingredient; emulsion sprayed seven days after seeding; evaluated 14 days after treatment
Method in brief: as §4

SMILES	herbicidal effect (herbicidal rate), Chenopodium album [%]
Cc1c(Cc2ccccc2NS(=O)(=O)C(F)(F)F)c(=O)on1CCC(C)(C)C [Compound 1-116]	50
Cc1c(Cc2ccccc2N(S(=O)(=O)C(F)(F)F)S(=O)(=O)C(F)(F)F)c(=O)on1CC1(C)CC1 [Compound 1-993]	40
Cc1c(Cc2ccccc2N(S(C)(=O)=O)S(=O)(=O)C(F)(F)F)c(=O)on1C(C)(C)C [Compound 1-889]	40

test system: Echinochloa crus-galli; assay: as above; assay type: in vivo; conditions: 120 g/10a active ingredient; emulsion sprayed seven days after seeding; evaluated 14 days after treatment
Method in brief: as §4

SMILES	herbicidal effect (herbicidal rate), Echinochloa crus-galli [%]
Cc1c(Cc2ccccc2NS(=O)(=O)C(F)(F)F)c(=O)on1CCC(C)(C)C [Compound 1-116]	80
Cc1c(Cc2ccccc2N(S(=O)(=O)C(F)(F)F)S(=O)(=O)C(F)(F)F)c(=O)on1CC1(C)CC1 [Compound 1-993]	60
Cc1c(Cc2ccccc2N(S(C)(=O)=O)S(=O)(=O)C(F)(F)F)c(=O)on1C(C)(C)C [Compound 1-889]	90

test system: southern crabgrass; assay: as above; assay type: in vivo; conditions: 120 g/10a active ingredient; emulsion sprayed seven days after seeding; evaluated 14 days after treatment
Method in brief: as §4

SMILES	herbicidal effect (herbicidal rate), southern crabgrass [%]
Cc1c(Cc2ccccc2NS(=O)(=O)C(F)(F)F)c(=O)on1CCC(C)(C)C [Compound 1-116]	40
Cc1c(Cc2ccccc2N(S(=O)(=O)C(F)(F)F)S(=O)(=O)C(F)(F)F)c(=O)on1CC1(C)CC1 [Compound 1-993]	40
Cc1c(Cc2ccccc2N(S(C)(=O)=O)S(=O)(=O)C(F)(F)F)c(=O)on1C(C)(C)C [Compound 1-889]	90
